Measured values as given in patent publication US20120029187A1, “HALOALKYLSULFONANILIDE DERIVATIVE” (Nissan Chemical Industries, Ltd., priority 2009, published 2012).

Experiments:
Assay type in all cases: in vivo
barnyardgrass [1] = assay: Test Example 1: herbicidal effects in preemergence treatment under submerged conditions; details: dose 2.52 g/a
Procedure, shortened: (§1)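 Scoring 0 (<5% mortality) to 5 (≥90%) was done three weeks after preemergence application to the water surface of submerged (4 cm) alluvial soil, doses given as g per are. Weeds were seeded and 2.5-leaf rice transplanted on the treatment day; greenhouse at 25–30 °C.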

bulrush [2] = assay: as above; details: dose 2.52 g/a
Procedure, shortened: as §1

ducksalad [3] = assay: as above; details: dose 2.52 g/a
Procedure, shortened: as §1

transplanted rice = assay: Test Example 1: preemergence treatment under submerged conditions, effect on crop; details: dose 2.52 g/a
Procedure, shortened: as §1

barnyardgrass [4] = assay: Test Example 2: herbicidal effects during the vegetation period under submerged conditions; details: treatment during the vegetation period under submerged conditions; dose 2.52 g/a
Procedure, shortened: (§2)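 Barnyardgrass, bulrush and ducksalad were co-sown in alluvial soil flooded to 4 cm and grown in a greenhouse at 25 to 30° C. At the 1- or 2-leaf stage, water-diluted emulsifiable concentrates went onto the water surface at set doses (g/a). Herbicidal effect was scored three weeks later on a graded scale.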

bulrush [5] = assay: as above; details: treatment during the vegetation period under submerged conditions; dose 2.52 g/a
Procedure, shortened: as §2

ducksalad [6] = assay: as above; details: treatment during the vegetation period under submerged conditions; dose 2.52 g/a
Procedure, shortened: as §2

Italian ryegrass [7] = assay: Test Example 3: herbicidal effects in soil treatment; details: dose 3.2 g/a
Procedure, shortened: (§3)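 Seeds were sown in sterilized diluvial soil and covered with about 1.5 cm of soil. Compounds, formulated as emulsifiable concentrates and diluted with water, were sprayed evenly over the soil surface at set doses in g/a. Herbicidal effect was scored on a rating scale three weeks later.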

barnyardgrass [8] = assay: as above; details: dose 3.2 g/a
Procedure, shortened: as §3

beadstraw [9] = assay: as above; details: dose 3.2 g/a
Procedure, shortened: as §3

common chickweed [10] = assay: as above; details: dose 3.2 g/a
Procedure, shortened: as §3

common lambsquater [11] = assay: as above; details: dose 3.2 g/a
Procedure, shortened: as §3

common ragweed [12] = assay: as above; details: dose 3.2 g/a
Procedure, shortened: as §3

giant foxtail [13] = assay: as above; details: dose 3.2 g/a
Procedure, shortened: as §3

large crabgrass [14] = assay: as above; details: dose 3.2 g/a
Procedure, shortened: as §3

posumbu knotweed [15] = assay: as above; details: dose 3.2 g/a
Procedure, shortened: as §3

redroot pigweed [16] = assay: as above; details: dose 3.2 g/a
Procedure, shortened: as §3

velvetleaf [17] = assay: as above; details: dose 3.2 g/a
Procedure, shortened: as §3

water foxtail [18] = assay: as above; details: dose 3.2 g/a
Procedure, shortened: as §3

wild oat [19] = assay: as above; details: dose 3.2 g/a
Procedure, shortened: as §3

Italian ryegrass [20] = assay: Test Example 4: herbicidal effect in foliage treatment; details: dose 3.2 g/a, three weeks after the application
Procedure, shortened: (§4)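 Visual herbicidal scores on a graded scale were recorded three weeks after foliar application. Compounds went on as diluted emulsifiable concentrates at predetermined g/a to plants grown 14 days in a 25 to 30° C greenhouse.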

barnyardgrass [21] = assay: as above; details: dose 3.2 g/a, three weeks after the application
Procedure, shortened: as §4

beadstraw [22] = assay: as above; details: dose 3.2 g/a, three weeks after the application
Procedure, shortened: as §4

common chickweed [23] = assay: as above; details: dose 3.2 g/a, three weeks after the application
Procedure, shortened: as §4

common lambsquater [24] = assay: as above; details: dose 3.2 g/a, three weeks after the application
Procedure, shortened: as §4

common ragweed [25] = assay: as above; details: dose 3.2 g/a, three weeks after the application
Procedure, shortened: as §4

giant foxtail [26] = assay: as above; details: dose 3.2 g/a, three weeks after the application
Procedure, shortened: as §4

large crabgrass [27] = assay: as above; details: dose 3.2 g/a, three weeks after the application
Procedure, shortened: as §4

posumbu knotweed [28] = assay: as above; details: dose 3.2 g/a, three weeks after the application
Procedure, shortened: as §4

redroot pigweed [29] = assay: as above; details: dose 3.2 g/a, three weeks after the application
Procedure, shortened: as §4

velvetleaf [30] = assay: as above; details: dose 3.2 g/a, three weeks after the application
Procedure, shortened: as §4

water foxtail [31] = assay: as above; details: dose 3.2 g/a, three weeks after the application
Procedure, shortened: as §4

wild oat [32] = assay: as above; details: dose 3.2 g/a, three weeks after the application
Procedure, shortened: as §4

Row | SMILES | A: barnyardgrass, herbicidal effect (evaluation scale 0-5) (barnyardgrass [1]) | B: bulrush, herbicidal effect (evaluation scale 0-5) (bulrush [2]) | C: ducksalad, herbicidal effect (evaluation scale 0-5) (ducksalad [3]) | a: transplanted rice, effect on crop (evaluation scale 0-5) (transplanted rice) | A: barnyardgrass, herbicidal effect (evaluation scale 0-5) (barnyardgrass [4]) | B: bulrush, herbicidal effect (evaluation scale 0-5) (bulrush [5]) | C: ducksalad, herbicidal effect (evaluation scale 0-5) (ducksalad [6]) | herbicidal effect, H: Italian ryegrass (Italian ryegrass [7]) | herbicidal effect, A: barnyardgrass (barnyardgrass [8]) | herbicidal effect, O: beadstraw (beadstraw [9]) | herbicidal effect, N: common chickweed (common chickweed [10]) | herbicidal effect, L: common lambsquater (common lambsquater [11]) | herbicidal effect, J: common ragweed (common ragweed [12]) | herbicidal effect, E: giant foxtail (giant foxtail [13]) | herbicidal effect, D: large crabgrass (large crabgrass [14]) | herbicidal effect, M: posumbu knotweed (posumbu knotweed [15]) | herbicidal effect, K: redroot pigweed (redroot pigweed [16]) | herbicidal effect, I: velvetleaf (velvetleaf [17]) | herbicidal effect, G: water foxtail (water foxtail [18]) | herbicidal effect, F: wild oat (wild oat [19]) | other results
1 | CN1COCN(Cc2ccccc2NS(=O)(=O)C(F)(F)F)C1=O [IV-1] | 5 (mortality of 90% or above (nearly complete death)) | 5 (mortality of 90% or above (nearly complete death)) | 4 (mortality of at least 70% and less than 90%) | 0 (mortality of less than 5% (almost ineffective)) | 4 (mortality of at least 70% and less than 90%) | 5 (mortality of 90% or above (nearly complete death)) | 4 (mortality of at least 70% and less than 90%) | 0 (mortality of less than 5% (almost ineffective)) | 5 (mortality of 90% or above (nearly complete death)) | 0 (mortality of less than 5% (almost ineffective)) | 0 (mortality of less than 5% (almost ineffective)) | 0 (mortality of less than 5% (almost ineffective)) | 2 (mortality of at least 20% and less than 40%) | 3 (mortality of at least 40% and less than 70%) | 4 (mortality of at least 70% and less than 90%) | 0 (mortality of less than 5% (almost ineffective)) | 0 (mortality of less than 5% (almost ineffective)) | 3 (mortality of at least 40% and less than 70%) | 5 (mortality of 90% or above (nearly complete death)) | 0 (mortality of less than 5% (almost ineffective)) | H: Italian ryegrass, herbicidal effect (Italian ryegrass [20]): 3 (mortality of at least 40% and less than 70%); A: barnyardgrass, herbicidal effect (barnyardgrass [21]): 4 (mortality of at least 70% and less than 90%); O: beadstraw, herbicidal effect (beadstraw [22]): 3 (mortality of at least 40% and less than 70%); N: common chickweed, herbicidal effect (common chickweed [23]): 1 (mortality of at least 5% and less than 20%); L: common lambsquater, herbicidal effect (common lambsquater [24]): 0 (mortality of less than 5% (almost ineffective)); J: common ragweed, herbicidal effect (common ragweed [25]): 1 (mortality of at least 5% and less than 20%); E: giant foxtail, herbicidal effect (giant foxtail [26]): 3 (mortality of at least 40% and less than 70%); D: large crabgrass, herbicidal effect (large crabgrass [27]): 4 (mortality of at least 70% and less than 90%); M: posumbu knotweed, herbicidal effect (posumbu knotweed [28]): 0 (mortality of less than 5% (almost ineffective)); K: redroot pigweed, herbicidal effect (redroot pigweed [29]): 0 (mortality of less than 5% (almost ineffective)); I: velvetleaf, herbicidal effect (velvetleaf [30]): 5 (mortality of 90% or above (nearly complete death)); G: water foxtail, herbicidal effect (water foxtail [31]): 5 (mortality of 90% or above (nearly complete death)); F: wild oat, herbicidal effect (wild oat [32]): 0 (mortality of less than 5% (almost ineffective))
2 | CCOC(=O)N(c1ccccc1CN1COCN(C)C1=O)S(=O)(=O)C(F)(F)F [IV-2] | 5 (mortality of 90% or above (nearly complete death)) | 5 (mortality of 90% or above (nearly complete death)) | 3 (mortality of at least 40% and less than 70%) | 0 (mortality of less than 5% (almost ineffective)) | 5 (mortality of 90% or above (nearly complete death)) | 5 (mortality of 90% or above (nearly complete death)) | 4 (mortality of at least 70% and less than 90%) | 2 (mortality of at least 20% and less than 40%) | 5 (mortality of 90% or above (nearly complete death)) | 0 (mortality of less than 5% (almost ineffective)) | 0 (mortality of less than 5% (almost ineffective)) | 0 (mortality of less than 5% (almost ineffective)) | 0 (mortality of less than 5% (almost ineffective)) | 4 (mortality of at least 70% and less than 90%) | 5 (mortality of 90% or above (nearly complete death)) | 0 (mortality of less than 5% (almost ineffective)) | 0 (mortality of less than 5% (almost ineffective)) | 2 (mortality of at least 20% and less than 40%) | 5 (mortality of 90% or above (nearly complete death)) | 0 (mortality of less than 5% (almost ineffective)) | H: Italian ryegrass, herbicidal effect (Italian ryegrass [20]): 0 (mortality of less than 5% (almost ineffective)); A: barnyardgrass, herbicidal effect (barnyardgrass [21]): 4 (mortality of at least 70% and less than 90%); O: beadstraw, herbicidal effect (beadstraw [22]): 0 (mortality of less than 5% (almost ineffective)); N: common chickweed, herbicidal effect (common chickweed [23]): 0 (mortality of less than 5% (almost ineffective)); L: common lambsquater, herbicidal effect (common lambsquater [24]): 0 (mortality of less than 5% (almost ineffective)); J: common ragweed, herbicidal effect (common ragweed [25]): 1 (mortality of at least 5% and less than 20%); E: giant foxtail, herbicidal effect (giant foxtail [26]): 3 (mortality of at least 40% and less than 70%); D: large crabgrass, herbicidal effect (large crabgrass [27]): 5 (mortality of 90% or above (nearly complete death)); M: posumbu knotweed, herbicidal effect (posumbu knotweed [28]): 0 (mortality of less than 5% (almost ineffective)); K: redroot pigweed, herbicidal effect (redroot pigweed [29]): 0 (mortality of less than 5% (almost ineffective)); I: velvetleaf, herbicidal effect (velvetleaf [30]): 3 (mortality of at least 40% and less than 70%); G: water foxtail, herbicidal effect (water foxtail [31]): 5 (mortality of 90% or above (nearly complete death)); F: wild oat, herbicidal effect (wild oat [32]): 0 (mortality of less than 5% (almost ineffective))
